Assay results: a melting point compilation (Tetko et al.; mined from patent text by program, amines drawn as free bases though some values may be those of a salt)

| SMILES | melting point |
| --- | --- |
| CC(=O)N(C)C(=N[N+](=O)[O-])NCc1csc(Cl)n1 | 105 to 108 °C |
| Cc1oc2c(Br)cccc2c1C | 33 °C |
| NNC(=O)c1ccc2oc3ccccc3c2c1 | 216 to 218 °C |
| COc1ccc(-c2nn(Cc3ccccc3)c(=O)c3ccccc23)c(OC)c1OC | 144 to 145 °C |
| C#CCON=Cc1cc(Cl)ccc1O | 71 to 73 °C |
| Nc1sc2c(c1C(=O)c1ccc(I)c3ccccc13)CCCC2 | 180 to 182 °C |
| CCOc1nc(O)cc(OC)n1 | 146 to 148 °C |
| CC(=O)Nc1ncnc2c1ncn2[C@@H]1C[C@H](OC(C)=O)[C@@H](O)[C@H]1O (racemic) | 193 to 195 °C |
| Cc1oc2c(-n3c(=O)cc(C(F)(F)F)n(C)c3=O)c(F)cc(Cl)c2c1CC(N)=O | 127 to 129 °C |
| Cc1[nH]c(C(C)(C)C)nc1C=O | 196 to 198 °C |
| CSC(C(=O)O)c1ccco1 (stereo not given) | 62 to 62.5 °C |
| O=C(NC1CCN(CCc2ccc(F)cc2)C1)C12CC3CC(CC(C3)C1)C2 (stereo not given) | 114 to 116 °C |
| O=C1CCCc2nc3ccccc3c(NCc3ccc(C(F)(F)F)cc3)c21 | 174 to 176 °C |
| CCCCc1nc2c(c(=O)[nH]1)CN(C(=O)C(C)(C)C)CC2 | 167 to 172 °C |
| C[Si](C)(C)C#Cc1cccc2ccccc12 | 41 to 43 °C |
| CCCc1c(CSc2nccc(OCC(=O)O)n2)ccc(C(C)=O)c1O | 174 to 178 °C |
| CC(=C1SC(=O)NC1=O)c1ccc(OCCOc2c(-c3ccccc3F)n(C)c3ccccc3c2=O)c(Cl)c1 | 220 to 222 °C |
| CCCNC(=O)C(C)Cc1ccc2c(c1)c(Cc1ccc(C(=O)NS(=O)(=O)c3ccccc3C)cc1OC)cn2CCC(=O)N(C)C (stereo not given) | 120 to 132 °C |
| COc1cc2c(cc1Nc1ncc(Cl)c(Nc3ccccc3-n3cccn3)n1)CCN(CC(=O)N(C)C)CC2 | 66 to 67 °C |
| COC(=O)Cc1cc(C(=O)c2ccc(C#Cc3ccccc3)c(N)c2)sc1-c1ccccc1 | 146 to 148 °C |
| CNc1c(F)cc2c(=O)c(C(=O)O)cn(-c3cc(N)c(F)cc3Br)c2c1Cl | > 280 °C |
| Cc1nnc(-c2ccc3occ(-c4ccc(S(C)=O)c(OC(F)(F)F)c4)c3c2)o1 (stereo not given) | 182 to 183 °C |
| Cc1ccc(-c2cc(OCC(=O)N3CCOCC3)c3ccccc3n2)cc1 | 146 °C |
| CCN1COc2cc3c(=O)n(CCc4cccc(F)c4)nnc3cc2C1=O | 161 to 163 °C |

| SMILES | melting point |
| --- | --- |
| O=C(O)Cc1ccc2c(c1)CC(CNS(=O)(=O)c1ccccc1)C2 (stereo not given) | 140 to 141 °C |
| CCOc1cc2c(=O)[nH]cnc2cc1OC(C)C | 204 to 205 °C |
| CC(=O)Nc1nc(/C=C/C(=O)N2CCN(C(=O)c3cc(C(F)(F)F)cc(C(F)(F)F)c3)[C@H](Cc3c[nH]c4ccccc34)C2)cs1 | 167 to 172 °C |
| CC(=O)Nc1ccccc1C(C)=O | 99 to 100 °C |
| CC1=C(C(=O)OCc2ccccc2)C(c2ccccc2Cl)c2c[nH]nc2N1 (stereo not given) | 234 °C |
| COc1cc(CCC2(C)OCc3c2cnc(C)c3O)cc(OC)c1OC (stereo not given) | 219 °C |
| CN1CCC(c2nc3ccccc3[nH]2)C1 (stereo not given) | 189 to 193 °C |
| COc1ccc(OC)c(Cc2ccc3nc(N)nc(N)c3c2)c1 | 190 to 192 °C |
| COC(=O)C=C1CCOc2ccc(Cl)cc21 | 113 to 115 °C |
| Brc1ccc2c(c1-c1c(Br)ccc3c1CCCC3)CCCC2 | 146 to 147 °C |
| Cc1nc(=O)[nH]c2cc3c(cc12)OCO3 | 310 to 312 °C |
| COc1cc2oc(=O)c(CCCl)c(C)c2cc1O | 230 to 235 °C |
| COC(COc1ccc2oc(C(=O)O)c(C)c2c1)OC | 74 °C |
| COc1ccccc1C(=O)N1CCCC2=C1CCc1cc(Cl)ccc12 | 139 °C |
| CCCCCC(=O)N1CCN2C[C@@H](c3ccccc3)c3ccccc3[C@@H]2C1 (relative stereo) | 163 to 164 °C |
| OC1CSC(Oc2cc(-c3ccncc3)ccc2Cl)C(O)C1O (stereo not given) | 189 °C |
| CC1CCC(N(CC2CCCC(CN(C(=O)Nc3ccc(N(C)C)cc3)C3CCC(C)CC3)C2)C(=O)Nc2ccc(N(C)C)cc2)CC1 (stereo not given) | 106 to 110 °C |
| CN(C)C1=NC(=O)C(Cc2cccc(-c3ccc(O)c(C4(C)CCCCC4)c3)c2)S1 (stereo not given) | 108 to 110 °C |
| CN(C)c1ccc(C=NC2CCCCC2N=Cc2ccc(O)cc2O)c(O)c1 (stereo not given) | 202 °C |
| CCOC(=O)Cc1c(-c2ccc(Cl)cc2)nn(-c2ccccc2)c1-c1ccc(Cl)cc1 | 120 to 122 °C |
| Fc1ccc(-c2ncn(C3CCNCC3)c2-c2cccnc2Oc2ccc(OCc3ccccc3)cc2)cc1 | 178 to 179 °C |
| COc1ccc(-c2cc3c(s2)c(=O)c(S(C)=O)cn3C)cc1 (stereo not given) | 262 to 264 °C |
| Cc1ccc(Cn2c(=O)c3c(N4CCN(C)CC4)cc(Cl)cc3n(Cc3ccccc3)c2=O)cc1 | 92 to 97 °C |
| CN1CCCC1CNC(=O)c1cc(S(N)(=O)=O)cc2c1OCCO2 (stereo not given) | 187 to 188 °C |

| SMILES | melting point |
| --- | --- |
| CCOC(=O)Cn1c(-c2ccccn2)nc2cccnc21 | 109 to 111 °C |
| COc1cc2c(cc1CCNC(=O)Cc1ccc(OC)c(OC)c1)CCC2 | 115 °C |
| O=C1CCc2cc(Br)c3c(c21)CCO3 | 149 to 150 °C |
| O=[N+]([O-])c1ccc2c(c1)NCC(C(F)F)(C(F)F)O2 | 150 to 152 °C |
| CC(C)=CCc1cc(-c2oc3c(CC=C(C)C)c(O)cc(O)c3c(=O)c2O)ccc1O | 145 to 146 °C |
| COc1ccc(-c2cc(C(C)(O)C(F)(F)F)[nH]c2-c2ccc(OC)cc2)cc1 (stereo not given) | 111 to 112 °C |
| O=C1N=C(N2CCCCCC2)SC1=Cc1cccc(-c2ccc(O)c(C34CC5CC(CC(C5)C3)C4)c2)c1 | 321 to 324 °C |
| CC#CC(C)(C)NC(=O)C(CC)Oc1ccc2ncc(C#N)cc2c1 (stereo not given) | 116 to 118 °C |
| O=C(Nc1ccc(CN2CCCC2)cc1)C1=Cc2cc(-c3ccccc3)ccc2CC1 | 186 to 187 °C |
| CC1(C)CCC(C)(C)c2cc(-c3cc(-c4ccc(C(=O)O)cc4)ccc3-c3ccccc3)c(O)cc21 | 145 °C |
| COc1ccc2c(c1OC)CCC1CNC(=O)C21 (stereo not given) | 185 to 187 °C |
| CCCCNC(=O)NS(=O)(=O)c1ccccc1S(=O)(=O)N(C)C(F)(F)C(F)F | 146 to 152 °C |
| Cc1[nH]n(Cc2ccc([N+](=O)[O-])cc2)c2nc(-c3ccncc3)nc(=O)c1-2 | 275 to 281 °C |
| C[Si](C)(O)O[Si](C)(C)c1ccc(OC(=O)Oc2ccc([Si](C)(C)O[Si](C)(C)O)cc2)cc1 | 62 to 63 °C |
| CC(C)NCC(O)COc1cccnc1[N+](=O)[O-] (stereo not given) | 99 to 101 °C |
| CC(=O)N(C)Nc1ccnc2c(NC(=O)c3c(Cl)cccc3Cl)cccc12 | 215 °C |
| CC#CC1CCC(c2ccc(C3CCC(CCC)CC3)cc2)CC1 (stereo not given) | 134 °C |
| COC(=O)NC12CC=CCC1CCc1ccc(OC)cc12 (stereo not given) | 120 to 122 °C |
| CCOC(=S)Nc1cccc(-c2ccnc3c(C(=O)c4cccs4)cnn23)c1 | 209 to 211 °C |
| CCn1cc(C(=O)OC)c(=O)cc1-c1ccc(N(C)C)c(C)c1 | 132 to 134 °C |
| CC(=O)Nc1cccc(-c2ccnc3c(C(=O)c4cccs4)cnn23)c1 | 245 to 247 °C |
| O=[N+]([O-])c1ccc(CF)cc1[N+](=O)[O-] | 37.5 to 38.5 °C |
